The record followed here is patent US8987195B2 (priority 2012, dated 2015).

The subject of one test is HCV genotype 1b replicon. The test is described as follows: HCV replicon assay, genotype 1b replicon EC50. The format is cell-based, Hepatitis C virus. The settings on record: Hepatitis C virus, genotype 1b replicon; read-out: EC50 [gt-1b]. In short, it runs like this:
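Assay format: compound titration on stable replicon cells, no G418 during treatment, 24 to 48 hours. Lysates were assayed for replicon RNA (hybridization/protection or TaqMan) or luciferase; EC50 fitted to four parameters against DMSO.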
(In general: In antiviral work, replicon cells carry a viral genome segment that copies itself.)

Test [1] has as its target HCV NS3/4A protease genotype 1b (Hepatitis C virus genotype 1b, UniProt P26663). In words: HCV NS3/4A protease time-resolved fluorescence (TRF) assay, Ki against genotype 1b. The format is biochemical. Conditions: for IC50: IC50 [gt-1b] (nM), NS3/4A genotype 1b, enzyme 0.2 nM; for pIC50: IC50 [gt-1b], NS3/4A protease TRF assay, genotype 1b enzyme 0.2 nM. A digest of the protocol: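 First, protease (genotype 1b 0.2 nM, A156T 0.4 nM, genotype 3a 0.025 nM) is preincubated 30 min with inhibitor. Next, 25 nM TRF substrate starts the reaction, run 2.5 h at room temperature. Finally, europium fluorescence is read and Ki calculated from IC50.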

Test [2] addresses HCV NS3/4A protease A156T mutant (Hepatitis C virus genotype 1b, UniProt P26663, A1182T). In words: HCV NS3/4A protease time-resolved fluorescence (TRF) assay, Ki against A156T mutant. It counts as biochemical. The protocol:
(§1) Measuring NS3/4A Inhibitory Activity (Ki) Against Genotype 1b, Against A156T Mutants and Against Genotype 3a
(§2) One assay for measuring inhibitory activity is HCV NS3 protease time-resolved fluorescence (TRF) assay as described below and in Mao et al., Anal. Biochem. 373:1-8, 2008 and International Patent Application Publication WO 2006/102087. A NS3 protease assay can be performed, for example, in a final volume of 20 μl assay buffer containing 50 mM HEPES, pH 7.5, 150 mM NaCl, 15% glycerol, 0.15% TRITON X-100, 10 mM DTT, and 0.1% PEG 8000. NS3 and NS4A protease is pre-incubated with various concentrations of inhibitors in DMSO for 30 min. The reaction is initiated by adding the TRF peptide substrate (final concentration 25 nM). NS3 mediated hydrolysis of the substrate was run for 2.5 hours at room temperature. Product fluorescence is detected using A Pherastar Plus plate reader (BMG) or Envision (Perkin Elmer Life and Analytical Sciences with excitation at 340 nm and emission at 615 nm using the appropriate delay time optimized for the europium fluorescence probe. Testing concentrations of different enzyme forms are selected to result in a signal to background ratio (S/B) of 10-30. IC50 values are derived using a standard four-parameter fit to the data. Ki values are derived from IC50 values using the following formula, IC50=Ki(1+[S]/KM), Eqn (1), where [S] is the concentration of substrate peptide in the reaction and KM is the Michaelis constant. See P. Gallinari et al., 38 BIOCHEM. 5620-32 (1999); P. Gallinari et al., 72 J. VIROL. 6758-69 (1998); M. Taliani et al., 240 ANAL. BIOCHEM. 60-67 (1996); Mao et al., Analytical Biochemistry 373: 1-8, 2008.
(§3) The assay described above was run against genotype 1b at a concentration of 0.2 nM, against A156T mutant strains at a concentration of 0.4 nM, and against genotype 3a at a concentration of 0.025 nM.

For test [3], the target named is HCV NS3/4A protease genotype 3a (Hepatitis C virus genotype 3a, UniProt Q81495). In words: HCV NS3/4A protease time-resolved fluorescence (TRF) assay, Ki against genotype 3a. It counts as biochemical. The procedure:
as §1, §2, §3

Setting [4] is: NS3/4A gt-1b A156T mutant, enzyme 0.4 nM, read-out: IC50 [gt-1b A156T].
The mark [5] stands for this setting: NS3/4A protease TRF assay, A156T mutant enzyme 0.4 nM, read-out: IC50 [gt-1b A156T].

pEC50, pIC50: −log10 of the molar value. Like-named read-outs stand apart in the source and are kept apart here.

A word on the pEC50: it is the EC50 on a negative log10 scale, so that one unit is a factor of ten. In general, IC50 refers to the concentration that inhibits the measured activity by half. A word on the pIC50: it is the IC50 on a negative log10 scale, so that one unit is a factor of ten. With `COc1ccc2nc(C(F)(F)F)c3c(c2c1)CC[C@]1(C[C@H]2C(=O)N[C@]4(C(=O)NS(=O)(=O)C5(C)CC5)C[C@H]4/C=C\CCCCC[C@H](NC(=O)OCC(C)C)C(=O)N2C1)O3` [Example 6, Isobutyl ((2R,6S,13aS,14aR,16aS,Z)-9′-methoxy-14a-(((1-methylcyclopropyl)sulfonyl)carbamoyl)-5,16-dioxo-5′-(trifluoromethyl)-1′,2′,3,5,6,7,8,9,10,11,13a,14,14a, 15,16,16a-hexadecahydro-1H-spiro[cyclopropa[e]pyrrolo[1,2-a][1,4]diazacyclopentadecine-2,3′-pyrano[2,3-c]quinolin]-6-yl)carbamate], in the test with HCV genotype 1b replicon, the pEC50 was 8.91. In test [1], this compound returned a half-maximal inhibitory concentration (IC50) of 0.016 nM. For the same compound, the pIC50 in test [2] was 9.23; in test [3], 9.28.

As to `CC(C)(C)OC(=O)N[C@H]1CCCCC/C=C\[C@@H]2C[C@@]2(C(=O)NS(=O)(=O)C2(C)CC2)NC(=O)[C@@H]2C[C@]3(CCc4c(c(C(F)(F)F)nc5ccc(OCCCN6CCOCC6)cc45)O3)CN2C1=O` [Example 50, tert-Butyl ((2R,6S,13aS,14aR,16aS,Z)-14a-(((1-methylcyclopropyl)sulfonyl)carbamoyl)-9′-(3-morpholinopropoxy)-5,16-dioxo-5′-(trifluoromethyl)-1′,2′,3,5,6,7,8,9, 10,11,13a,14,14a,15,16,16a-hexadecahydro-1H-spiro[cyclopropa[e]pyrrolo[1,2-a][1,4]diazacyclopentadecine-2,3′-pyrano[2,3-c]quinolin]-6-yl)carbamate], in the test on HCV genotype 1b replicon, the negative-log EC50 (pEC50) was 9.55. In test [1], the IC50 worked out at 0.01 nM. Besides, the results for the pIC50 in test [2] (setting [4]) and in test [3] were 10.10 and 10.02, respectively.

As to `Cc1nc2ccccc2c2c1O[C@]1(CC2)C[C@H]2C(=O)N[C@]3(C(=O)NS(=O)(=O)C4(C)CC4)C[C@H]3/C=C\CCCCC[C@H](NC(=O)OC(C)(C)C)C(=O)N2C1` [Example 74, tert-butyl [(2R,6S,12Z,13aS,14aR,16aS)-5′-methyl-14a-{[(1-methylcyclopropyl)sulfonyl]carbamoyl}-5,16-dioxo-1,1′,2′,5,6,7,8,9,10,11,13a,14,14a,15,16,16a-hexadecahydrospiro[cyclopropa[e]pyrrolo[1,2-a][1,4]diazacyclopentadecine-2,3′-pyrano[2,3-c]quinolin]-6-yl]carbamate], the negative-log EC50 (pEC50) in the test on HCV genotype 1b replicon was 8.61. Further, inhibition in test [1] was half-maximal at 0.008 nM (IC50). The figures for the pIC50 in test [2] (setting [4]) and in test [3] were 9.91 and 9.24, respectively.

As for `Cc1nc2ccccc2c2c1O[C@]1(CC2)C[C@H]2C(=O)N[C@]3(C(=O)NS(=O)(=O)C4(C)CC4)C[C@H]3/C=C\CCCCC[C@H](NC(=O)OC3(C)CC3)C(=O)N2C1` [Example 79, 1-methylcyclopropyl [(2R,6S,12Z,13aS,14aR,16aS)-5′-methyl-14a-{[(1-methylcyclopropyl)sulfonyl]carbamoyl}-5,16-dioxo-1,1′,2′,5,6,7,8,9,10,11,13a,14,14a,15,16,16a-hexadecahydrospiro[cyclopropa[e]pyrrolo[1,2-a][1,4]diazacyclopentadecine-2,3′-pyrano[2,3-c]quinolin]-6-yl]carbamate], the negative logarithm of the EC50 (pEC50) with HCV genotype 1b replicon is 8.77. In test [2] (setting [4]), the pIC50 is 9.82.

In the case of `COc1cc(Cl)c2nc(C(F)(F)F)c3c(c2c1)CC[C@]1(C[C@H]2C(=O)N[C@]4(C(=O)NS(=O)(=O)C5(C)CC5)C[C@H]4/C=C\CCCCC[C@H](NC(=O)OC(C)(C)C)C(=O)N2C1)O3` [Example 398, tert-butyl [(2R,6S,12Z,13aS,14aR,16aS)-7′-chloro-9′-methoxy-14a-{[(1-methylcyclopropyl)sulfonyl]carbamoyl}-5,16-dioxo-5′-(trifluoromethyl)-1,1′,2′,5,6,7,8,9,10,11,13a,14,14a,15,16,16a-hexadecahydrospiro[cyclopropa[e]pyrrolo[1,2-a][1,4]diazacyclopentadecine-2,3′-pyrano[2,3-c]quinolin]-6-yl]carbamate], the negative-log IC50 (pIC50) is 10.60 in test [1], 9.30 in test [2] (setting [5]) and 8.63 in test [3].

As for `COc1cc(Cl)c2nc(C(F)(F)F)c3c(c2c1)CC[C@]1(C[C@H]2C(=O)N[C@]4(C(=O)NS(=O)(=O)C5(C)CC5)C[C@H]4/C=C\CCCCC[C@H](NC(=O)OCC(C)C)C(=O)N2C1)O3` [Example 399, 2-methylpropyl [(2R,6S,12Z,13aS,14aR,16aS)-7′-chloro-9′-methoxy-14a-{[(1-methylcyclopropyl)sulfonyl]carbamoyl}-5,16-dioxo-5′-(trifluoromethyl)-1,1′,2′,5,6,7,8,9,10,11,13a,14,14a,15,16,16a-hexadecahydrospiro[cyclopropa[e]pyrrolo[1,2-a][1,4]diazacyclopentadecine-2,3′-pyrano[2,3-c]quinolin]-6-yl]carbamate], the negative logarithm of the IC50 (pIC50) is 10.57 in test [1], 8.84 in test [2] (setting [5]) and 8.19 in test [3].

Take `COc1ccc2nc(C(F)(F)F)c3c(c2c1)[C@](C)(O)C[C@]1(C[C@H]2C(=O)N[C@]4(C(=O)NS(=O)(=O)C5(C)CC5)C[C@H]4/C=C\CCCCC[C@H](NC(=O)OC4(C)CCC4)C(=O)N2C1)O3` [Example 507, 1-methylcyclobutyl [(1′R,2S,6S,12Z,13aS,14aR,16aS)-1′-hydroxy-9′-methoxy-1′-methyl-14a-{[(1-methylcyclopropyl)sulfonyl]carbamoyl}-5,16-dioxo-5′-(trifluoromethyl)-1,1′,2′,5,6,7,8,9,10,11,13a,14,14a,15,16,16a-hexadecahydrospiro[cyclopropa[e]pyrrolo[1,2-a][1,4]diazacyclopentadecine-2,3′-pyrano[2,3-c]quinolin]-6-yl]carbamate]: the negative logarithm of the IC50 (pIC50) in test [1] was 10.60; in test [2] (setting [5]), 8.63; in test [3] it was 8.35.

`COCCCOc1ccc2nc(C(F)(F)F)c3c(c2c1)CC[C@]1(C[C@H]2C(=O)N[C@]4(C(=O)NS(=O)(=O)C5(C)CC5)C[C@H]4/C=C\CCCCC[C@H](NC(=O)OC4(C)CCC4)C(=O)N2C1)O3` [Example 522, 1-methylcyclobutyl [(2R,6S,12Z,13aS,14aR,16aS)-9′-(3-methoxypropoxy)-14a-{[(1-methylcyclopropyl)sulfonyl]carbamoyl}-5,16-dioxo-5′-(trifluoromethyl)-1,1′,2′,5,6,7,8,9,10,11,13a,14,14a,15,16,16a-hexadecahydrospiro[cyclopropa[e]pyrrolo[1,2-a][1,4]diazacyclopentadecine-2,3′-pyrano[2,3-c]quinolin]-6-yl]carbamate]: the negative logarithm of the IC50 (pIC50) in test [1] (K+ salt) is 11.30; in test [2] (NS3/4A protease TRF assay, A156T mutant enzyme 0.4 nM, K+ salt, read-out: IC50 [gt-1b A156T]) it was 9.55; in test [3], 9.51.

Take `COc1ccc2nc(C(F)F)c3c(c2n1)CC[C@]1(C[C@H]2C(=O)N[C@]4(C(=O)NS(=O)(=O)C5(C)CC5)C[C@H]4/C=C\CCCCC[C@H](NC(=O)O[C@@H]4C[C@@H]5C[C@@H]5C4)C(=O)N2C1)O3` [Example 524, (1R,3r,5S)-bicyclo[3.1.0]hex-3-yl [(2R,6S,12Z,13aS,14aR,16aS)-6′-(difluoromethyl)-2′-methoxy-14a-{[(1-methylcyclopropyl)sulfonyl]carbamoyl}-5,16-dioxo-1,5,6,7,8,9,9′,10,10′,11,13a,14,14a,15,16,16a-hexadecahydrospiro[cyclopropa[e]pyrrolo[1,2-a][1,4]diazacyclopentadecine-2,8′-pyrano[2,3-c][1,5]naphthyridin]-6-yl]carbamate]: the figures for the negative-log IC50 (pIC50) in test [1], in test [2] (setting [5]) and in test [3] were 11.52, 9.74 and 9.96, respectively.

On to `C=C[C@@H]1C[C@]1(NC(=O)[C@@H]1C[C@]23CCc4c(c(nc5ccc(OC)cc45)CCCCC[C@@H]4C[C@H]4OC(=O)N[C@@H](C(C)(C)C)C(=O)N1C2)O3)C(=O)NS(=O)(=O)C1(C)CC1` [Example 527], for which the pIC50 was 10.59 in test [1] and 9.17 in test [3].
